Where two headings read alike, the source gives them in different places.
Legend:
[1] = target: T1, human EHMT2 913-1193 (Homo sapiens, UniProt Q96KQ7); assay: EHMT2 enzyme assay on histone peptide substrate; format: biochemical; conditions: histone H3 1-15 peptide, balanced conditions
T1 construct: recombinant purified human EHMT2 913-1193, Viva; purchased Viva
T1 sequence (Q96KQ7 913-1193): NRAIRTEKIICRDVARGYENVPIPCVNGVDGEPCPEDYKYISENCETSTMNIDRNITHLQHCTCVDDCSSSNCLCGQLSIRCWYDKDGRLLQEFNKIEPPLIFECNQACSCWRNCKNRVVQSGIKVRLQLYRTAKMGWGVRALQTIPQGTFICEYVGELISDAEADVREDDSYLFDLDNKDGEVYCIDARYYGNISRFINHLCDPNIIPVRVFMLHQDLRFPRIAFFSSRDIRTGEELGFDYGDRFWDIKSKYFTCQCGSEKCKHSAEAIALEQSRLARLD
Excerpt: Recombinant purified human EHMT2 913-1193 ([…]) synthesized by Viva was used for all experiments. Biotinylated histone peptides were synthesized by Biopeptide and HPLC-purified to >95% purity. Streptavidin Flashplates and seals were purchased from PerkinElmer and 384 Well V-bottom Polypropylene Plates were from Greiner. ^3H-labeled S-adenosylmethionine (^3H-SAM) was obtained from American Radiolabeled Chemicals with a specific activity of 80 Ci/mmol. Unlabeled SAM and S-adenosylhomocysteine (SAH) were obtained from American Radiolabeled Chemicals and Sigma-Aldrich respectively. Flashplates were washed in a Biotek ELx-405 with 0.1% Tween. 384-well Flashplates and 96-well filter binding plates were read on a TopCount microplate reader (PerkinElmer). Compound serial dilutions were performed on a Freedom EVO (Tecan) and spotted into assay plates using a Thermo Scientific Matrix PlateMate (Thermo Scientific). Reagent cocktails were added by Multidrop Combi (Thermo Scientific).
10-point curves of test compounds were made on a Freedom EVO (Tecan) using serial 3-fold dilutions in DMSO, beginning at 2.5 mM (final top concentration of compound was […] and the DMSO was 2%). A 1 μL aliquot of the inhibitor dilution series was spotted in a polypropylene 384-well V-bottom plate (Greiner) using a Thermo Scientific Matrix PlateMate (Thermo Scientific). The 100% inhibition control consisted of 1 mM final concentration of the product inhibitor S-adenosylhomocysteine (SAH, Sigma-Aldrich). Compounds were incubated for 30 minutes with 40 μL per well of 0.031 nM EHMT2 (recombinant purified human EHMT2 913-1193, Viva) in 1× assay buffer (20 mM Bicine [pH 7.5], 0.002% Tween 20, 0.005% Bovine Skin Gelatin and 1 mM TCEP). 10 μL per well of substrate mix comprising assay buffer, ^3H-SAM (^3H-labeled S-adenosylmethionine, American Radiolabeled Chemicals, specific activity of 80 Ci/mmol), unlabeled SAM (American Radiolabeled Chemicals), and peptide representing histone H3 residues 1-15 containing C-terminal biotin (appended to a C-terminal amide-capped lysine, synthesized by Biopeptide and HPLC-purified to greater than 95% purity) were added to initiate the reaction (both substrates were present in the final reaction mixture at their respective Km values, an assay format referred to as “balanced conditions”). Reactions were incubated for 60 minutes at room temperature and quenched with 10 μL per well of 400 μM unlabeled SAM, then transferred to a 384-well streptavidin Flashplate (PerkinElmer) and washed in a Biotek ELx-405 well washer with 0.1% Tween after 60 minutes. 384-well Flashplates were read on a TopCount microplate reader (PerkinElmer).

[2] = test system: H3K9me2 in MDA-MB-231 cells; assay: MDA-MB-231 H3K9me2 in-cell western assay (EHMT2 ICW); format: cell-based; conditions: Homo sapiens
Excerpt: MDA-MB-231 cell line was purchased from ATCC (Manassas, Va., USA). RPMI/Glutamax medium, Penicillin-Streptomycin, Heat Inactivated Fetal Bovine Serum, and D-PBS were purchased from Life Technologies (Grand Island, N.Y., USA). Odyssey blocking buffer, 800 CW goat anti-mouse IgG (H+L) antibody, and Licor Odyssey Infrared Scanner were purchased from Licor Biosciences, Lincoln, Nebr., USA. H3K9me2 mouse monoclonal antibody (Cat #1220) was purchased from Abcam (Cambridge, Mass., USA). 16% Paraformaldehyde was purchased from Electron Microscopy Sciences, Hatfield, Pa., USA). MDA-MB-231 cells were maintained in complete growth medium (RPMI supplemented with 10% v/v heat inactivated fetal bovine serum) and cultured at 37° C. under 5% C02. UNC0638 was purchased from Sigma-Aldrich (St. Louis, Mo., USA).
General Procedure for MDA-MB-231 HEK9me2 in-Cell Western Assay.
Compound (100 nL) was added directly to 384-well cell plate. MDA-MB-231 cells (ATCC) were seeded in assay medium (RPMI/Glutamax supplemented with 10% v/v heat inactivated fetal bovine serum and 1% Penicillin/Streptomycin, Life Technologies) at a concentration of 3,000 cells per well to a Poly-D-Lysine coated 384-well cell culture plate with 50 μL per well. Plates were incubated at 37° C., 5% CO2 for 48 hours (BD Biosciences 356697). […] After the incubation, 50 μL per well of 8% paraformaldehyde (Electron Microscopy Sciences) in PBS was added to the plates and incubated at room temperature for 20 minutes. Plates were transferred to a Biotek 406 plate washer and washed 2 times with 100 μL per well of wash buffer (1×PBS containing 0.3% Triton X-100 (v/v)). Next, 60 μL per well of Odyssey blocking buffer (Licor Biosciences) was added to each plate and incubated for 1 hour at room temperature. Blocking buffer was removed and 20 μL of monoclonal primary antibody α-H3K9me2 (Abcam) diluted 1:800 in Odyssey buffer with 0.1% Tween 20 (v/v) were added and plates were incubated overnight (16 hours) at 4° C. Plates were washed 5 times with 100 μL per well of wash buffer. Next 20 μL per well of secondary antibody was added (1:500 800 CW donkey anti-mouse IgG (H+L) antibody (Licor Biosciences), 1:1000 DRAQ5 (Cell Signaling Technology) in Odyssey buffer with 0.1% Tween 20 (v/v)) and incubated for 1 hour at room temperature. The plates were washed 5 times with 100 μL per well wash buffer then 2 times with 100 μL per well of water. Plates were allowed to dry at room temperature then imaged on a Licor Odyssey Infrared Scanner (Licor Biosciences) which measured integrated intensity at 700 nm and 800 nm wavelengths. Both 700 and 800 channels were scanned.
First, the ratio for each well was determined by:
Each plate included fourteen control wells of DMSO only treatment (Minimum Inhibition) as well as fourteen control wells (background wells) for maximum inhibition treated with control compound UNC0638 (Background wells).
The average of the ratio values for each well was calculated and used to determine the percent inhibition for each test well in the plate. Control compound was serially diluted three-fold in DMSO for a total of 10 test concentrations beginning at 1 μM. Percent inhibition was calculated as: […]
IC50 curves were generated using triplicate wells per concentration of compound. The IC50 is the concentration of compound at which measured methylation is inhibited by 50% as interpolated from the dose response curves. IC50 values were calculated using a non-linear regression (variable slope-four parameter fit model) with by the following formula:
where Top is fixed at 100% and Bottom is fixed to 0%, [I]=concentration of inhibitor, IC50=half maximal inhibitory concentration and n=Hill Slope.

[3] = Table 3, read-out: EHMT2 PEP (IC50 μM)
[4] = Table 3, read-out: EHMT2 ICW (IC50 μM)
[5] = Table 3A, read-out: EHMT2 (IC50 μM)
[6] = Table 3A, read-out: ICW (IC50 μM)

SMILES | IC50 [1, 3] | IC50 [2, 4] | IC50 [1, 5] | IC50 [2, 6]
CNc1cc(C)nc(Nc2ccc(Cl)c(C(=O)NCC3CCC3)c2)n1 [Compound 3] | 1 to 10 µM | > 10 µM |  | 
CNc1cc(C)nc(Nc2ccc(Cl)c(C(=O)Nc3cocn3)c2)n1 [Compound 14, 2-chloro-5-[[4-methyl-6-(methylamino)pyrimidin-2-yl]amino]-N-(1,3-oxazol-4-yl)benzamide] | > 10 µM | > 10 µM |  | 
CNc1cc(C)nc(Nc2ccc(Cl)c(C(=O)NCCN3CCCC3)c2)n1 [Compound 7] | 0.1 to 1 µM | 1 to 10 µM |  | 
CNc1cc(C)nc(Nc2ccc(OC)c(OC[C@H](O)CN3CCCCC3)c2)n1 [Compound 40] | > 10 µM | > 10 µM |  | 
CNc1cc(C)nc(Nc2ccc(Cl)c(C(=O)Nc3ccccc3)c2)n1 [Compound 10] | > 10 µM | > 10 µM |  | 
CNc1cc(C)nc(Nc2ccc(C)c(C(=O)Nc3cn(C4CC4)cn3)c2)n1 [Compound 36] | > 10 µM | > 10 µM |  | 
CNc1cc(C)nc(Nc2ccc(Cl)c(C(=O)Nc3ncco3)c2)n1 [Compound 6] | 1 to 10 µM | 1 to 10 µM |  | 
CNc1cc(C)nc(Nc2ccc(C)c(C(=O)Nc3c[nH]cn3)c2)n1 [Compound 37] | 1 to 10 µM | > 10 µM |  | 
CNc1cc(C)nc(Nc2ccc(OC)c(C#CCN3CCNCC3)c2)n1 [Compound 28, 2-N-[4-methoxy-3-[3-(piperazin-1-yl)prop-1-yn-1-yl]phenyl]-4-N,6-dimethylpyrimidine-2,4-diamine] | 0.1 to 1 µM | 1 to 10 µM |  | 
CNc1cc(C)nc(Nc2ccc(Cl)c(C(=O)NC3CCOCC3)c2)n1 [Compound 8] | > 10 µM | > 10 µM |  | 
CNC1=Nc2cc(-n3cc(CN4CCC4)cn3)c(Cl)cc2C12CCC2 [Compound A17, 6′-(4-(azetidin-1-ylmethyl)-1H-pyrazol-1-yl)-5′-chloro-N-methylspiro[cyclobutane-1,3′-indol]-2′-amine] |  |  | 0.01 to 0.1 µM | 0.1 to 1 µM
CNc1cc(C)nc(Nc2ccc(OC)c(CNCCN3CCC[C@@H]3C)c2)n1 [Compound 32] | > 10 µM | 1 to 10 µM |  | 
CNc1cc(C)nc(Nc2ccc(OC)c(CN[C@@H](C)CN3CCCC3)c2)n1 [Compound 47] | 0.1 to 1 µM | 1 to 10 µM |  | 
CNc1cc(C)nc(Nc2ccc(Cl)c(C(=O)NCC3COC3)c2)n1 [Compound 2, 2-chloro-5-[[4-methyl-6-(methylamino)pyrimidin-2-yl]amino]-N-(oxetan-3-ylmethyl)benzamide] | > 10 µM | > 10 µM |  | 
CCCCNC(=O)c1cc(Nc2nc(C)cc(NC)n2)ccc1Cl [Compound 9] | 1 to 10 µM | 1 to 10 µM |  | 
CNC1=Nc2cc(-n3cc([C@@H]4CCCN4)nn3)c(Cl)cc2C12CCC2 [Compound A2S, (S)-5′-chloro-N-methyl-6′-(4-(pyrrolidin-2-yl)-1H-1,2,3-triazol-1-yl)spiro[cyclobutane-1,3′-indol]-2′-amine] |  |  | 0.1 to 1 µM | > 1 µM
CNc1cc(C)nc(Nc2ccc(OC)c(CNC[C@@H](C)N3CCCC3)c2)n1 [Compound 42] | 0.1 to 1 µM | 1 to 10 µM |  | 
CNc1cc(C)nc(Nc2ccc(OC)c(CN[C@H](C)CN3CCCC3)c2)n1 [Compound 48] | 1 to 10 µM | 1 to 10 µM |  | 
CNc1cc(C)nc(Nc2ccc(OC)c(CNCCN3CC(C)C3)c2)n1 [Compound 35] | > 10 µM | > 10 µM |  | 

Now from value to molecule:

IC50 [1, 3] | IC50 [2, 4] | IC50 [1, 5] | IC50 [2, 6] | SMILES
 |  | 0.01 to 0.1 µM | 0.1 to 1 µM | CNCc1cn(-c2c(OC)cc3c(c2F)N=C(N)C32CCC2)nn1 [Compound A22]
 |  | < 0.01 µM | 0.01 to 0.1 µM | CNc1cc(C)nc(Nc2ccc(Cl)c(-n3cc(CN)cn3)c2Cl)n1 [Compound A6]
 |  | 0.01 to 0.1 µM | 0.01 to 0.1 µM | CNCc1cn(-c2c(OC)ccc(Nc3nc(C)cc(NC)n3)c2F)nn1 [Compound A3, N2-(2-fluoro-4-methoxy-3-[4-[(methylamino)methyl]-1H-1,2,3-triazol-1-yl]phenyl)-N4,6-dimethylpyrimidine-2,4-diamine]
 |  | 0.01 to 0.1 µM | 0.1 to 1 µM | CNC1=Nc2cc(-n3cc(C4CCCN4)nn3)c(Cl)cc2C12CCC2 (centres unmarked) [Compound A2]
 |  | 0.1 to 1 µM | > 1 µM | CNc1cc(C)nc(Nc2ccc(OC)c(-n3cc(CNC(C)C)cn3)c2F)n1 [Compound A5]
 |  | 0.01 to 0.1 µM | 0.1 to 1 µM | CNCc1cn(-c2cc3c(cc2Cl)C2(CCC2)C(N)=N3)nn1 [Compound A15, 5′-chloro-6′-(4-((methylamino)methyl)-1H-1,2,3-triazol-1-yl)spiro[cyclobutane-1,3′-indol]-2′-amine]
 |  | 0.01 to 0.1 µM | 0.1 to 1 µM | CNCc1cc(-c2c(OC)ccc(Nc3nc(C)cc(NC)n3)c2F)no1 [Compound A14, N2-(2-fluoro-4-methoxy-3-[5-[(methylamino)methyl]-1,2-oxazol-3-yl]phenyl)-N4,6-dimethylpyrimidine-2,4-diamine]
 |  | 0.1 to 1 µM | 0.1 to 1 µM | CNc1cc(C)nc(Nc2ccc(OC)c(-n3ncc4c3CCNC4)c2F)n1 [Compound A9, N2-(2-fluoro-4-methoxy-3-(4,5,6,7-tetrahydro-1H-pyrazolo[4,3-c]142yridine-1-yl)phenyl)-N4,6-dimethylpyrimidine-2,4-diamine]
 |  | 0.1 to 1 µM | 0.1 to 1 µM | CCNCc1cnn(-c2c(OC)ccc(Nc3nc(C)cc(NC)n3)c2F)c1 [Compound A7]

Source: US20200317642A1, “AMINE-SUBSTITUTED HETEROCYCLIC COMPOUNDS AS EHMT2 INHIBITORS AND DERIVATIVES THEREOF” (Epizyme, Inc., priority 2017, published 2020)
